Earlier results as cited in paper PMC10707982, “Solubility and Thermodynamics Data of Cabozantinib Malate in Various Aqueous Solutions of Dimethyl Sulfoxide at Different Temperatures” (Molecules, 2023).

Set-up: method as in doi:10.1016/j.molliq.2020.115146
Conditions: neat solvent; cited from earlier work

SMILES	HSP of neat solvent (δ1, δ2)
C[S+](C)[O-] [DMSO, dimethyl sulfoxide]	23.60 MPa^1/2
O [H2O, water]	47.80 MPa^1/2
